Source: ChEMBL document CHEMBL1151140, “Enantiomeric Relationships and Anthelmintic Activity of Dysinin Derivatives from Dysidea Marine Sponges” (J Nat Prod, 1990)
The source made the active and inactive calls. The calls are words filed in the database; no cut-off is given here.

Tests used:
[1] = test system: Nippostrongylus brasiliensis; experiment: Anthelmintic activity against Nippostrongylus brasiliensis at 50 ug/ml; format: functional, organism-based
[2] = Anthelmintic activity against Hypselodoris nana at 1000 ppm; format: functional
Nippostrongylus = experiment: Anthelmintic activity against Nippostrongylus dubias at 1000 ppm; format: functional, organism-based

| Structure (SMILES) | Activity [1] | Activity [2] | Activity (Nippostrongylus) |
| --- | --- | --- | --- |
| CC1=C[C@H]2Cc3occc3C(C)(C)[C@@H]2CC1 | Active | inactive | inactive |
| CO[C@]12C[C@@H]3C=C(CSC(C)=O)CC[C@H]3C(C)(C)C1=CC(=O)O2 | inactive |  |  |
| CC1(C)c2ccoc2C[C@@H]2C=C(CSSCC3=C[C@H]4Cc5occc5C(C)(C)[C@@H]4CC3)CC[C@H]21 | Active |  |  |
| CC(=O)SCC1=C[C@H]2Cc3occc3C(C)(C)[C@@H]2CC1 | Active |  |  |
